Patent US9695154B2, “Heteroaryl inhibitors of sumo activating enzyme” (MILLENNIUM PHARMACEUTICALS, INC., priority 2013, dated 2017)

Molecular target: T1, recombinant human SAE enzyme (Homo sapiens, UniProt Q9UBT2)
T1 sequence (Q9UBT2 1-640): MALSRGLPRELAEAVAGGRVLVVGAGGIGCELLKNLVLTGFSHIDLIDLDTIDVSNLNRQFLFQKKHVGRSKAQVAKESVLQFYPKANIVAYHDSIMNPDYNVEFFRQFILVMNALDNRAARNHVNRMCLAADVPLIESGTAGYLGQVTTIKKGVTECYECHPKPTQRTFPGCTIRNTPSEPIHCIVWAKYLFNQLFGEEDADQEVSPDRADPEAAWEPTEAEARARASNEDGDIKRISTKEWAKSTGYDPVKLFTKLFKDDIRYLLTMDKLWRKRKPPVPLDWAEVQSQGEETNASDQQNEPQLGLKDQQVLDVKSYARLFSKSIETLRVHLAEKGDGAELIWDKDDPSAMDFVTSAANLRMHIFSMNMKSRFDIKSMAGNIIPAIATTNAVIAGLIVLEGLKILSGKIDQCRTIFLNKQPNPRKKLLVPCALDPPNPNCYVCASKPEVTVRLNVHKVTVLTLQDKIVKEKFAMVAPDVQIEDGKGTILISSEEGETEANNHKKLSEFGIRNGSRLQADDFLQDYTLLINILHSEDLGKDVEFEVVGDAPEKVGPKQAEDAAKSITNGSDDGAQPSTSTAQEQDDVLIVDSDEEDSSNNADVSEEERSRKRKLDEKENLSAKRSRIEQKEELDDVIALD
T1 sequence (Q9UBE0 1-346 partner): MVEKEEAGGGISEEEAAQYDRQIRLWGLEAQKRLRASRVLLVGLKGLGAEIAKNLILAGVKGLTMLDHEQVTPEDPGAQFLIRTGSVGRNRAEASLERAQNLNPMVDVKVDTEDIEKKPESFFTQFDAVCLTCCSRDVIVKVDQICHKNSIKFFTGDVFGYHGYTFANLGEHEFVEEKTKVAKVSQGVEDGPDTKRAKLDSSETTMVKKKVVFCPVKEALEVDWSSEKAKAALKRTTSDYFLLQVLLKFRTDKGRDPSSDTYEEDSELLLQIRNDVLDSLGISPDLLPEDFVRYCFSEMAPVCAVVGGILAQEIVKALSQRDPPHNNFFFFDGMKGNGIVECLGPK
Assay: SAE HTRF Enzyme Assay
Type: biochemical
Details: for IC50: class symbols A-C; for inhibition at 0.111 µM: compound concentration 0.111 μM, read-out: Percent Inhibition
Method in brief: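 Recombinant human SAE (0.11 nM) transferred Sumo-Flag (0.125 μM) to Ubc9-GST (0.01 μM) with 0.5 μM ATP in HEPES pH 7.5, MgCl2, GSH, BSA; 105 min at 24° C. EDTA stop, Eu-cryptate anti-Flag and XL-APC anti-GST added, 2 h, then HTRF read. Values given as % inhibition at one concentration or IC50.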

Structure (SMILES)	IC50 [nM]	inhibition at 0.111 µM [%]
NS(=O)(=O)OC[C@H]1C[C@@H](Nc2ncncc2C(=O)c2ccn(Cc3cccc(C4(O)COC4)c3)n2)C[C@@H]1O [Compound I-270, [(1R,2S,4R)-2-hydroxy-4-{[5-{{1-[3-(3-hydroxyoxetan-3-yl)benzyl]-1H-pyrazol-3-yl}carbonyl)pyrimidin-4-yl]amino}cyclopentyl]methyl sulfamate]	10 to 100	87
NS(=O)(=O)OC[C@H]1C[C@@H](Nc2ncncc2C(=O)c2ccn(Cc3cccc(OC(F)(F)F)c3)c2)C[C@@H]1O [Compound I-271, [(1R,2S,4R)-2-hydroxy-4-{[5-({1-[3-(trifluoromethoxy)benzyl]-1H-pyrrol-3-yl}carbonyl)pyrimidin-4-yl]amino}cyclopentyl]methyl sulfamate]	< 10	97
NS(=O)(=O)OC[C@H]1C[C@@H](Nc2ncncc2C(=O)c2cc(Br)n(Cc3cccc(Br)c3)c2)[C@@H](F)[C@@H]1O [Compound I-272, {(1R,2R,3R,4R)-4-[(5-{[5-bromo-1-(3-bromobenzyl)-1H-pyrrol-3-yl]carbonyl}pyrimidin-4-yl)amino]-3-fluoro-2-hydroxycyclopentyl}methyl sulfamate]	< 10	99
NS(=O)(=O)OC[C@H]1C[C@@H](Nc2ncncc2C(=O)c2ccn(Cc3ccc(F)c4ccccc34)n2)[C@H](O)[C@@H]1O [Compound I-273, [(1R,2R,3S,4R)-4-{[5-({1-[(4-fluoro-1-naphthyl)methyl]-1H-pyrazol-3-yl}carbonyl)pyrimidin-4-yl]amino}-2,3-dihydroxycyclopentyl]methyl sulfamate]	< 10	98
NS(=O)(=O)OC[C@H]1C[C@@H](Nc2ncncc2C(=O)c2ccn(Cc3ccc(C(F)(F)F)o3)c2)C[C@@H]1O [Compound I-274, [(1R,2S,4R)-2-hydroxy-4-({5-[(1-{[5-(trifluoromethyl)-2-furyl]methyl}-1H-pyrrol-3-yl)carbonyl]pyrimidin-4-yl}amino)cyclopentyl]methyl sulfamate]	< 10	97
NS(=O)(=O)OC[C@H]1C[C@@H](Nc2ncncc2C(=O)c2ccn(CC#CC3(O)COC3)n2)C[C@@H]1O [Compound I-275, [(1R,2S,4R)-2-hydroxy-4-{[5-({1-[3-(3-hydroxyoxetan-3-yl)prop-2-yn-1-yl]-1H-pyrazol-3-yl}carbonyl)pyrimidin-4-yl]amino}cyclopentyl]methyl sulfamate]	100 to 1000	18
NS(=O)(=O)OC[C@H]1C[C@@H](Nc2ncncc2C(=O)c2ccn(Cc3ccc(OC(F)(F)F)cc3)n2)C[C@@H]1O [Compound I-276, [(1R,2S,4R)-2-hydroxy-4-{[5-({1-[4-(trifluoromethoxy)benzyl]-1H-pyrazol-3-yl}carbonyl)pyrimidin-4-yl]amino}cyclopentyl]methyl sulfamate]	10 to 100	82
Cc1ccc(Cn2ccc(C(=O)c3cncnc3N[C@@H]3C[C@H](COS(N)(=O)=O)[C@@H](O)[C@@H]3F)c2)o1 [Compound I-277, [(1R,2R,3R,4R)-3-fluoro-2-hydroxy-4-{[5-({1-[(5-methyl-2-furyl)methyl]-1H-pyrrol-3-yl}carbonyl)pyrimidin-4-yl]amino}cyclopentyl]methyl sulfamate]	< 10	99
NS(=O)(=O)OC[C@H]1C[C@@H](Nc2ncncc2C(=O)c2ccn(Cc3cccc(-c4ccccc4)c3)n2)[C@H](O)[C@@H]1O [Compound I-278, {(1R,2R,3S,4R)-4-[(5-{[1-(biphenyl-3-ylmethyl)-1H-pyrazol-3-yl]carbonyl}pyrimidin-4-yl)amino]-2,3-dihydroxycyclopentyl}methyl sulfamate]	< 10	97
